US10995068B2, “Synthetic sphingolipid-like molecules, drugs, methods of their synthesis and methods of treatment” (The Regents of the University of California, priority 2015, dated 2021)

Tests used:
[1] = system: PP2A; test: PP2A phosphatase activity; assay type: biochemical, murine; conditions: PP2A immunoprecipitated from FL5.12 cell lysates, phosphopeptide dephosphorylation
Excerpt: Furthermore, many embodiments of the invention are directed to azacyclic constrained sphingolipid-like molecules inducing internalization of nutrient transporters via a mechanism that activates PP2A. […] Thus, activation of PP2A is very peculiar to certain sphingolipid structures. Activation of PP2A by FTY720 and SH-BC-893 also stimulated vacuolation, and as the PP2A inhibitors calyculin A and SV40 small t antigen, each blocked this effect (FIG. 59C). Of note, YM201636-induced vacuolation was unaffected by PP2A inhibition (FIG. 60B). In addition, inhibiting PP2A restored PIKfyve to the proper location within vacuoles in cells treated with FTY720 or SH-BC-893 (FIG. 57D).
PP2A phosphatase activity. PP2A activity was measured using a PP2A immunoprecipitation phosphatase assay kit (EMD Millipore). Briefly, the catalytic subunit of PP2A was immunoprecipitated from FL5.12 cell lysates with 4 μg anti-PP2A, C subunit. After four washes, the activity of immunoprecipitated PP2A was assessed by dephosphorylation of the phosphopeptide according to the manufacturer's instructions in the presence or absence of C2-ceramide, dihydro-C2-ceramide, FTY720, SH-BC-893, or calyculinA.

[2] = system: murine hematopoietic cell line FL5.12; test: Viability of FL5.12 cells by vital dye exclusion; assay type: cell-based; conditions: Mus musculus; FL5.12 cells, 48 h, vital dye exclusion; n ≥3; read-out: IC50 (μM) [95% CI]
Outline: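 Murine FL5.12 hematopoietic cells were grown in RPMI 1640 with 10% FCS, 10 mM Hepes, 500 pg/ml IL-3, 55 μM β-mercaptoethanol and 2 mM L-glutamine at 0.1-0.5 million/ml. Viability was scored by vital dye exclusion, and IC50 values came from curve fitting.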

[3] = Heart rate by ECG telemetry in mice; assay type: in vivo, C57BL/6 mice; conditions: for heart rate in telemetry tracing: after injection, saline approximately 600 BPM
Excerpt: In more exemplary embodiments, compounds 5 and 5-P were further examined for their ability to activate multiple S1P receptors in vivo. In particular, mouse heart rate and lymphocyte sequestration were examined. Mouse heart rate decreases causing bradycardia when S1P receptor 3 is activated while in humans this effect may be mediated by S1P receptor 1. In both mice and humans, lymphocytes are sequestered when the S1P receptor 1 is activated.
As shown in the telemetry readings detailed in FIG. 36, FTY720 (B) slowed heart rate comparison to compound 5 (C) and the control (A, saline). As shown in A, after administering saline, normal sinus rhythm with clearly discernible P waves, representing atrial depolarization, and QRS complexes, representing ventricular depolarization, at regular intervals is observed. The heart rate in this tracing was approximately 600 beats per minute (BPM). […] Finally, as shown in C, for exemplary embodiment compound 5, similar to the saline injection, normal sinus rhythm with well-defined and consistent P waves and QRS complexes were present following injection. The heart rate in this tracing was approximately 600 BPM, similar to saline.
Heart rate: C57BL/6 mice are surgically implanted with DSI TA-ETAF20 electrocardiographic telemetry devices (Data Sciences International, St. Paul, Minn.). The electrocardiographic data is collected and recorded using the PhysioTel telemetry system and Dataquest A.R.T 4.0 software (DSI). The telemetry device is implanted in the mouse's abdominal cavity with biopotential leads sutured in place in the chest wall. Buprenorphine (0.05 mg/kg) is administered every 12 h after surgery for pain management and enrofloxacin (3 mg/kg) is administered 2× per day for 7 days post-surgery as an antibiotic. Mice are permitted two weeks recovery after surgery before initiation of baseline telemetry recordings. Heart rate is calculated from ECG data taken in the freely moving, conscious mice. Mice are divided into two groups of 3 mice and treated intraperitoneally with a single dose of vehicle (0.9% saline or 20% acidified DMSO in 0.9% saline), 10 mg/kg FTY720, FTY720-Phosphate, 5, or 5-P and heart rate monitored continuously for 10 h. Mice are rested for two weeks at which point the experiment is repeated with the mice assigned to the alternate group. These experiments are performed in accordance with all national or local guidelines and regulations and were approved by the UCI Institutional Animal Care and Use Committee.

[4] = system: subcutaneous SW620 xenograft tumors; test: SW620 xenograft study in nude mice; assay type: in vivo
Description: In even another exemplary study, anti-neoplasm potency of the constrained pyrrolidine sphingolipid-like compounds in xenograft tumor animal studies. Nude mice bearing subcutaneous SW620 xenograft tumors were treated daily with 10 mg/kg FTY720 or 20 mg/kg of compounds 5 or 15 by intraperitoneal injection. […] Furthermore, these compounds retain many of the beneficial abilities of FTY720, such as, for example water solubility, oral bioavailability, and anti-tumor activity but no longer trigger bradycardia. Thus, these compounds are ideal for medicaments and treatments for neoplasms.
SW620 and SW480 xenograft studies: For SW620 xenograft studies, two and one half million luciferase-expressing SW620 colon cancer cells suspended in PBS with 2% FCS are injected subcutaneously in the flank of 7 week old male nude mice (Charles Rivers Labs, Crl:NU(NCr)-Foxn1nu). When tumors reached 100 mm^3 in volume, mice are assigned to groups with matched average tumor volumes and animal weights. Four groups containing 7 mice are treated intraperitoneally with either vehicle (0.9% saline), 10 mg/kg FTY720, or 20 mg/kg compound 5 or compound 15. Tumor length and width are measured with calipers at 7 and 11 days of treatment. Tumor volume is calculated using the formula volume (mm^3)=length [mm]×(width [mm])^2×0.52. The average fold change in the volume of each tumor over time is shown.

Compound	PP2A activation [1]	IC50 [2] [µM]	heart rate in telemetry tracing [3]	effect on heart rate ([3]; single dose 10 mg/kg intraperitoneally, compared to saline controls)	tumor growth of SW620 xenografts ([4]; 20 mg/kg daily by intraperitoneal injection)	decrease of heart rate ([3]; single dose 10 mg/kg intraperitoneally, compared to saline vehicle)	tumor growth of SW620 xenografts ([4]; 10 mg/kg daily by intraperitoneal injection)
CCCCCCCCc1ccc([C@H]2CCN[C@@H]2CO)cc1.Cl [Compound 5, (2S,3R)-2-(hydroxymethyl)-3-(4-octylphenyl)Pyrrolidinium chloride]	activating PP2A	1.9	approximately 600 BPM	no significant effect	inhibited tumor growth	–	–
CCCCCCCCc1ccc(CCC(N)(CO)CO)cc1.Cl [FTY720, 2-Amino-2-[2-(4-octylphenyl)ethyl]propane 1,3-diol hydrochloride, reference compound]	activating PP2A	2.4	approximately 200 BPM	–	–	approximately 50%	inhibited tumor growth
